US4200575A, “7[(2-Thiazolyl)-2-(oxoimino)acetamido]cephalosporin derivatives” (Takeda Chemical Industries, Ltd., priority 1977, dated 1980)

How the values were obtained:
Experiment in all cases: Minimal inhibitory concentration (M.I.C.), agar dilution method
Settings in all cases: TSA, inoculum 10^7 /ml
S. marcescens TN 24 = assay type: cell-based, Serratia marcescens
Text: (§1) (a) Determination of minimal inhibitory concentrations (Tables 1 to 8):
(§2) Procedure: agar dilution method

S. marcescens IFO 12648 = assay type: cell-based, Serratia marcescens
Text: as §1, §2

P. morganii IFO 3168 = assay type: cell-based, Proteus morganii
Text: as §1, §2

P. rettgeri GN4733 = assay type: cell-based, Proteus rettgeri
Text: as §1, §2

P. rettgeri TN 338 = assay type: cell-based, Proteus rettgeri
Text: as §1, §2

K. pneumoniae GN 3835 = assay type: cell-based, Klebsiella pneumoniae
Text: as §1, §2

K. pneumoniae DT = assay type: cell-based, Klebsiella pneumoniae
Text: as §1, §2

E. coli 0-111 = assay type: cell-based, Escherichia coli
Text: The minimal inhibitory concentrations (M.I.C.) of some representative cephalosporin derivatives of this invention as produced by the procedures described in those examples and the minimal inhibitory concentrations of cephalothin [sodium 7-(2-thienylacetamido)-3-acetoxymethyl-3-cephem-4-carboxylate], cephaloridine [7-(2-thienylacetamido)-3-(1-pyridyl)methyl-3-cephem-4-carboxylic acid betaine] and cefazolin [sodium 7-(1H-tetrazol-1-yl)acetamido-3-(2-methyl-1,3,4-thiadiazol-5-yl)thiomethyl-3-cephem-4-carboxylate], which are among the clinically established and commercially available cephalosporins (as described, for example, in the New England Journal of Medicine 294, 24, 1976 and Journal of Pharmaceutical Science 64, 1899, 1975), both against various bacteria, as well as the therapeutic effects of some respresentative cephalosporin derivatives of this invention and of cephaloridine in infected mice, are shown in tables.
as §1, §2

C. freundii GN 1706 = assay type: cell-based, Citrobacter freundii
Text: as §1, §2

C. freundii GN 99 = assay type: cell-based, Citrobacter freundii
Text: as §1, §2

E. coli T-7 = assay type: cell-based, Escherichia coli
Text: as §1, §2

E. coli NIHJ JC-2 = assay type: cell-based, Escherichia coli
Text: as §1, §2

E. cloacae TN 1282 = assay type: cell-based, Enterobacter cloacae
Text: as §1, §2

P. mirabilis GN 4359 = assay type: cell-based, Proteus mirabilis
Text: as §1, §2

S. aureus 209P = assay type: cell-based, Staphylococcus aureus
Text: as §1, §2

S. aureus 1840 = assay type: cell-based, Staphylococcus aureus
Text: as §1, §2

P. vulgaris GN 4413 = assay type: cell-based, Proteus vulgaris
Text: as §1, §2

P. vulgaris IFO 3988 = assay type: cell-based, Proteus vulgaris
Text: as §1, §2

| SMILES | minimal inhibitory concentration (M.I.C.) (S. marcescens TN 24) | minimal inhibitory concentration (M.I.C.) (S. marcescens IFO 12648) | minimal inhibitory concentration (M.I.C.) (P. morganii IFO 3168) | minimal inhibitory concentration (M.I.C.) (P. rettgeri GN4733) | minimal inhibitory concentration (M.I.C.) (P. rettgeri TN 338) | minimal inhibitory concentration (M.I.C.) (K. pneumoniae GN 3835) | minimal inhibitory concentration (M.I.C.) (K. pneumoniae DT) | minimal inhibitory concentration (M.I.C.) (E. coli 0-111) | minimal inhibitory concentration (M.I.C.) (C. freundii GN 1706) | minimal inhibitory concentration (M.I.C.) (C. freundii GN 99) | minimal inhibitory concentration (M.I.C.) (E. coli T-7) | minimal inhibitory concentration (M.I.C.) (E. coli NIHJ JC-2) | minimal inhibitory concentration (M.I.C.) (E. cloacae TN 1282) | minimal inhibitory concentration (M.I.C.) (P. mirabilis GN 4359) | minimal inhibitory concentration (M.I.C.) (S. aureus 209P) | minimal inhibitory concentration (M.I.C.) (S. aureus 1840) | minimal inhibitory concentration (M.I.C.) (P. vulgaris GN 4413) | minimal inhibitory concentration (M.I.C.) (P. vulgaris IFO 3988) |
| --- | --- | --- | --- | --- | --- | --- | --- | --- | --- | --- | --- | --- | --- | --- | --- | --- | --- | --- |
| CNC(=O)O/N=C(\C(=O)NC1C(=O)N2C(C(=O)O)=C(CSc3nnnn3CCN(C)C)CSC12)c1csc(=N)[nH]1 (stereo not drawn) [Example IV - 3, 7-[2-(2-imino-4-thiazolin-4-yl)-2-methylcarbamoyloximinoacetamido]-3-[1-(2-dimethylammonium)ethyl-1H-tetrazol-5-yl]thiomethyl-3-cephem-4-carboxylate (syn-isomer)] | 6.25 | 6.25 | 0.39 | 0.39 | ≤ 0.2 | 0.39 | ≤ 0.2 | ≤ 0.2 | 0.78 | ≤ 0.2 | 3.13 | 0.39 | 1.56 | 0.39 | 1.56 | 3.13 | 100 | 0.39 |
| CC1=C(C(=O)O)N2C(=O)C(NC(=O)/C(=N\OC(=O)NC(C)C)c3csc(=N)[nH]3)C2SC1 (stereo not drawn) [Example II - 19] | > 100 | 100 | 50 | 0.39 | 0.1 | 6.25 | 3.13 | 3.13 | 12.5 | 12.5 | 25 | 6.25 | 100 | 3.13 | 25 | 25 | 50 | 12.5 |
| CC(=O)OCC1=C(C(=O)[O-])N2C(=O)C(NC(=O)Cc3cccs3)[C@H]2SC1.[Na+] (stereo partly drawn) [Cephalothin, sodium 7-(2-thienylacetamido)-3-acetoxymethyl-3-cephem-4-carboxylate, reference compound] | > 100 | > 100 | > 100 | > 100 | 1.56 | 12.5 | 1.56 | 3.13 | > 100 | 25 | 100 | 12.5 | > 100 | 3.13 | 0.20 | 0.39 | > 100 | 1.56 |
| CNC(=O)O/N=C(\C(=O)NC1C(=O)N2C(C(=O)O)=C(CSc3nnc(CO)n3C)CSC12)c1csc(=N)[nH]1 (stereo not drawn) [Example IV - 5] | 3.13 | 3.13 | 0.39 | 0.78 | ≤ 0.2 | 0.39 | ≤ 0.2 | ≤ 0.2 | 0.78 | 0.39 | 1.56 | ≤ 0.2 | 3.13 | 0.39 | 6.25 | 6.25 | 25 | 0.39 |
